# Patent US7853319B2, “Method and system for detecting electrophysiological changes in pre-cancerous and cancerous tissue and epithelium” (Epi-Sci, LLC, priority 2005, dated 2010)
# Where two headings read alike, the source gives them in different places.
# Experiments:
# distal colon = details: administered over the same period (four weeks) as carcinogen; cited from earlier work
# [1] = tested on: histologically "normal" colonic epithelium; details: cited from earlier work
# [2] = tested on: apical K+ channels of premalignant human mucosa (distal colon); assay: Short circuit current of colonic mucosa ex vivo in Ussing chambers, premalignant mucosa; details: assuming complete block
# Method: (§1) The potassium permeability of the apical membrane of human colonic mucosa (P^Ka) was determined in surgical specimens of controls and grossly normal-appearing mucosa obtained 10-30 cm proximal to colorectal adenocarcinomas. The mucosa was mounted in Ussing chambers and the basolateral membrane resistance and voltage were nullified by elevating the K^+ in the serosal bathing solution. The apical sodium (Na^+) conductance was blocked with 0.1 mM amiloride. This protocol reduces the equivalent circuit model of the epithelium to an apical membrane conductance and electromotive force in parallel with the paracellular pathway as has been verified by microelectrode studies. […] In cancer-bearing colon the reduction in Isc is to −65 μA/cm^2. The serosal bath was remained constant at 125 mM [K].
# (§2) Because the voltage across the apical membrane is zero under these conditions and the paracellular pathway is nonselective, the P^Ka (apical potassium permeability) can be calculated using the Fick equation i.e., Isc=F·P^Ka·Δ[K] where F is the Faraday constant and Δ[K] is the concentration difference for K^+ across the epithelium. […] P^Ka could also be calculated for the change in Isc when the K^+ channels were blocked with TEA, assuming complete block.
# [3] = tested on: apical K+ channels of human colonic epithelium (normal colon); assay: Short circuit current of colonic mucosa ex vivo in Ussing chambers, normal colon (controls)
# Method: as §1, §2
# breast epithelium = details: 20 μM luminal amiloride, cited from earlier work
# [4] = tested on: malignant human breast epithelial cells; assay: Transepithelial potential of monolayers in modified Ussing chambers, malignant epithelia; assay type: cell-based
# Method: (§3) It should be noted that the instantaneous response, illustrated in FIG. 8, is greater in malignant epithelia, whereas the chronic or sustained exposure to estradiol results in a lower increase in TEP (transepithelial electropotential) in malignant cells. Concurrent measurement of surface electropotential and impedance allow the more accurate diagnosis of cancer. […] The cells were grown as monolayers on Millipore filters and grew to confluence in 7 to 10 days. The epithelia were then mounted in modified Ussing chambers and the TEP was measured using a voltage clamp. Increasing doses of estradiol between 0 and 0.8 μM were added (x-axis). The transepithelial potential was measured after each addition and the TEP was measured (y-axis). The different dose response is apparent for benign and malignant epithelia. Malignant epithelia have a lower TEP but undergo an instantaneous increase in TEP of approximately 9 mV (becomes more electronegative and reaches a level of <−6 mV) after exposure to only 0.1 μM estradiol and then depolarize to approximately −2 mV with increasing doses of estradiol up to about 0.5 μM.
# [5] = tested on: benign breast epithelial cells; assay: Cell membrane potential (ψ) with potentiometric fluorescent probe, benign cells; assay type: cell-based, human; details: estradiol added to the culture media; approximately −50 mV in its absence
# Method: (§4) Measurements were made using a potentiometric fluorescent probe, and ratiometric measurements, which are calibrated using valinomycin and [K^+]-gradients. ψs were measured in the presence (closed circles) and absence (open circles) of estradiol (the active metabolite of estrogen). Each symbol is the mean measurement. The upper error bar is the standard error of the mean, and the lower error bar is the 95% confidence level for the observations. The addition of estrogen to cultured breast epithelial cells results in an instantaneous increase in ψ (data not shown) as well as the transepithelial potential see FIG. 8. Transepithelial potential (VT) of an epithelium is the sum of the apical (luminal) cell membrane potential (VA) and the basolateral (abluminal) cell membrane potential (VBL). Therefore VT=VA+VBL (changes in VA and/or VBL will therefore alter VT or transepithelial potential). […] Malignant and transformed cells have a ψ of between −31 and −35 mV in the absence of estradiol and […] when estradiol is present in the culture medium.
# breast tissue = assay: Electrophysiological response of breast tissue after sublingual 17-β-estradiol; assay type: in vivo, human; details: sublingual administration, 4 mg
# Method: In one method of the present invention, estradiol is introduced directly into the duct or systemically following sublingual administration of 17-β-estradiol (4 mg). This agent produces a rapid response, which peaks at approximately 20 minutes. The electrophysiological response depends, in part, on the stage of the patient's menstrual cycle, as well as the condition of the breast tissue. Specifically, in normal breast tissue, a rise in TEP will occur during the follicular (or early) phase. In pre-cancerous or cancerous tissue, this response is abrogated.
# [6] = tested on: benign human breast epithelial cells; assay: Transepithelial potential of monolayers in modified Ussing chambers, benign epithelia; assay type: cell-based; details: then remains persistently elevated
# Method: as §3
# [7] = tested on: Malignant and transformed cells (human breast epithelial cells); assay: Cell membrane potential (ψ) with potentiometric fluorescent probe, malignant and transformed cells; assay type: cell-based; details: estradiol present in the culture medium; −31 to −35 mV in its absence
# Method: as §4
# [8] = after exposure to 0.1 μM estradiol
compound,measurement,setting,value
O=c1[nH]cc(F)c(=O)[nH]1 [5-fluorouracil],effect on transepithelial potential (VT),distal colon,did not cause a reduction in VT
"CNNC [DMH, 1,2 dimethylhydrazine]",VA (apical membrane voltage),"[1]; after 6 weeks of DMH treatment, from −74.9 mV",−61.4 mV
same,VA (apical membrane voltage),[1]; by 20 weeks of DMH treatment,−34 mV
CC[N+](CC)(CC)CC [TEA],apical K+ permeability (P^Ka) calculated from change in Isc on TEA block,[2],3.8 ×10⁻⁶ cm/s
same,effect on short circuit current (Isc),"[3]; 30 mM mucosal TEA, 0.1 mM amiloride, elevated serosal K+, normal colon",abrupt increase in Isc
same,apical K+ permeability (P^Ka) calculated from change in Isc on TEA block,"[3]; controls, assuming complete block",6.4 ×10⁻⁶ cm/s
N=C(N)NC(=O)c1nc(Cl)c(N)nc1N [amiloride],depolarization of the transepithelial potential (change),breast epithelium; baseline −5.9±0.5 mV (mean±SEM),+3.1±0.5 mV
same,increase in transepithelial resistance,breast epithelium,17%
"C[C@]12CC[C@@H]3c4ccc(O)cc4CC[C@H]3[C@@H]1CC[C@@H]2O [estradiol, 17-β-estradiol]",TEP level reached,[4]; [8],< −6 mV
same,instantaneous increase in TEP,[4]; [8],approximately 9 mV
same,TEP after depolarization with increasing doses,[4]; increasing doses of estradiol up to about 0.5 μM,approximately −2 mV
same,cell membrane potential (ψ),[5],~−70 mV
same,time to peak of electrophysiological response,breast tissue,approximately 20 minutes
same,estradiol dose at which TEP response peaks,[6],~0.3 µM
same,cell membrane potential (ψ),[7],approximately 50 mV
